Here are results for 28 compounds from patent US4803203A, “Phenyl and heterocyclic piperazinyl alkoxy-benzheterocyclic compounds as antipsychotic agents” (Warner-Lambert Company, priority 1987, dated 1989).

For experiment [1], the system named is spontaneous locomotion (Swiss-Webster male mice). In words: Inhibition of locomotor activity-screen fall-off test. The experiment is classed as in vivo, mouse (Swiss-Webster male mice). The conditions noted are these: Mus musculus, ip, 1 h, intraperitoneal, one hour prior to testing, locomotion accumulated for one hour. The method, then: ANIMALS: Nine unfasted Swiss-Webster male mice (Buckberg Labs) weighing 20-30 g are equally divided into three groups for each drug dose to be tested. That is, data for each dose level was generated by three separate groups of three mice each.
DRUGS: A minimum of three dose levels (10, 30, and 100 mg/kg) are tested for each drug. Treatments are administered intraperitoneally one hour prior to testing. All dosages are calculated as parent compound. Compounds are dissolved or suspended in 0.2% methocel. Control animals are injected with methocel.
TESTING: A two-part testing procedure is started one hour postinjection. First, the screen test is performed (see Pharmac Biochem Behav 6, 351-353, 1977). Briefly, this test consists of placing mice on individual wire screens which are then rotated 180° at the start of a 60-second observation period. The number of mice falling off the inverted screen is recorded.
Immediately following the screen test, the final phase of testing is initiated by placing each group of three mice in one actophotometer (Life Sciences, 22, 1067-1076, 1978). The actophotometer consists of a cylindrical chamber whose center is occupied by another cylinder which contains the illumination for six photocells located on the perimeter of the chamber. Six light-beam interruptions equal one count. Locomotor activity is recorded by computer at ten-minute intervals for 60 minutes.
DATA: The data obtained from the screen test are expressed as percent of mice falling off the screen. Data derived from locomotor activity of drug-treated mice are compared to the activity of vehicle-treated animals and are expressed as percent inhibition of spontaneous locomotion. All percentages reported for inhibition of locomotion are based upon data accumulated for one hour. Both phases of testing are graded: A=60-100%; C=31-59%; and N=0-30%. An overall dose rating is obtained by the following criteria.
All other combinations = N
Utilizing this procedure, an overall dose rating of A was obtained for the noted compounds at the indicated dose, ED50 s, as reported in Table 1.

The target in experiment [2] is T1, dopamine receptors (striatal membranes) (Rattus norvegicus, UniProt P61169).
T1 construct: striatal membranes prepared from Long-Evans hooded rats; from tissue; host or cells: corpus striatum of Long-Evans hooded rats (membrane homogenate)
T1 sequence (P61169 whole entry): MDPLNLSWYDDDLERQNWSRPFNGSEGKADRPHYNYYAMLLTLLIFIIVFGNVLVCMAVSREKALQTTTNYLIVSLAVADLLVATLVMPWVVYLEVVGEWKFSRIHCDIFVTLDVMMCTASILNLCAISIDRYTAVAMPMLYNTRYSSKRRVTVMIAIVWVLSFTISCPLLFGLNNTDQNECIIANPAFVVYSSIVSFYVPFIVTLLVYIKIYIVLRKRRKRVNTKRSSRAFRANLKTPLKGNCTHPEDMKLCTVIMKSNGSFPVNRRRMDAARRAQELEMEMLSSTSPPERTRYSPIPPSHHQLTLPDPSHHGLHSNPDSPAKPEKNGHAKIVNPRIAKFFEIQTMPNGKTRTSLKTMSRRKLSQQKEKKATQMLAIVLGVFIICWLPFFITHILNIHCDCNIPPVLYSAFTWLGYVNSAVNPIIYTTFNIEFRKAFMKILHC
As to the kind of experiment: [^3 H]Haloperidol binding assay. The arrangement: species or system rat (Long-Evans hooded rats). The note with it: 0.6 nM [^3 H]-haloperidol, pH 7.6, 25° C., 40 minutes. The method, then:
The antipsychotic activity of representative compounds of the invention was also established by the [^3 H]haloperidol binding assay method which is described in Mol. Pharmacol. 12, 800 (1976) and reports excellent correlation between the amount of binding and clinical potency.
[^3 H]Haloperidol Binding Assay. The relative affinities of compounds for dopamine receptors were evaluated on the basis of their ability to displace [^3 H]-haloperidol from striatal membranes prepared from Long-Evans hooded rats. Rats were decapitated; the brains were removed, and the corpus striata were dissected. The corpus striata were homogenized in 40 volumes of […] Tris buffer (pH 7.6) and centrifuged. Pellets were rehomogenized in 50 volumes of the same buffer and used for the binding assay. Incubations were carried out in 10 ml of […] Tris-HCl buffer (pH 7.6) containing 2 mg/ml of original wet tissue weight of homogenate, 100 μl of test agent or solvent, and 0.6 nM of [^3 H]-haloperidol. Nonspecific binding was determined in the presence of 0.1 μM (+)-butaclamol. Samples were incubated in reciprocating water bath at 25° C. for 40 minutes. Incubation was terminated by rapid filtration under reduced pressure through glass fiber filters (Whatman GF/B). The filters were rinsed three times with 10 ml of Tris-HCl buffer. The filters were placed in 10 ml of scintillation cocktail (Beckman Ready-Solv HP) and shaken for one hour. Radioactivity retained on the filter was determined by liquid scintillation spectrophotometry. IC50 s when determined were calculated from a nonlinear computer curve, fit on the data from […], each done in triplicate.

The mark [3] stands for this setting: rat striatal membranes, read-out: ^3 H-Haloperidol Binding IC50.
The mark [4] stands for this setting: ^3 H-Haloperidol Binding IC50, rat striatal membranes.

Broadly, the ED50 is the midpoint of the dose-response relation. A word on the IC50: it is the concentration needed to halve the response being measured.

Molecules are shown by their SMILES. Read-outs that look alike come from different tables or passages of the source.

`CC1(C)CC(=O)c2ccc(OCCCN3CCN(c4ccccc4)CC3)cc2O1` [Example 1, 2,3-Dihydro-2,2-dimethyl-7-(3-(4-phenyl)-1-piperizinyl)propoxy-4H-benzopyran-4-one]: in experiment [1], the ED50 is 5.9 mg/kg. In addition, the IC50 in experiment [2] (setting [3]) was 0.3 µM.

On to `CC1(C)CC(=O)c2ccc(OCCCN3CC=C(c4ccccc4)CC3)cc2O1` [Example 2A, 7-[3-[3,6-dihydro-4-phenyl-1(2H)-pyridinyl)propoxy]-2,3-dihydro-2,2-dimethyl-4H-benzopyran-4-one], for which the ED50 in experiment [1] stood at 4.8 mg/kg. In experiment [2] (setting [4]), this compound came in with an IC50 below 0.1 µM.

Consider `O=C1COc2cc(OCCCN3CCN(c4ccccc4)CC3)ccc21` [Example 2B, 6-[3-(4-phenyl-1-piperazinyl)propoxy]-3-(2H)-benzofuranone], for which, in experiment [1], the 50% effective dose (ED50) is 3.7 mg/kg. Moreover, the IC50 in experiment [2] (setting [3]) amounted to 0.1 µM.

Regarding `O=C1COc2cc(OCCCN3CC=C(c4ccccc4)CC3)ccc21` [Example 2C], the 50% effective dose (ED50) in experiment [1] came to 3.5 mg/kg. The compound also registered an IC50 in experiment [2] (setting [4]) below 0.1 µM.

`c1ccc(N2CCN(CCCOc3ccc4c(c3)OCCC4)CC2)cc1` [Example 2D, 1-[3-[(3,4-dihydro-2H-1-benzopyran-7-yl)oxy]propyl]-4-phenylpiperazine]: the ED50 in experiment [1] amounted to 2.7 mg/kg. Besides, the concentration for half-maximal inhibition (IC50) in experiment [2] (setting [3]) was 0.07 µM.

As for `O=C1COc2ccc(OCCCN3CCN(c4ncccn4)CC3)cc2N1` [Example 2E, 6-[3-[4-(2-pyrimidinyl)-1-piperazinyl]propoxy]-2H-1,4-benzoxazine-3(4H)-one], the ED50 in experiment [1] stood at 1 mg/kg. Moreover, in experiment [2] (setting [3]), the IC50 is 1 µM.

For the compound `C1=C(c2ccccc2)CCN(CCCOc2cccc3[nH]ccc23)C1` [Example 2F, 4-[3-(3,6-dihydro-4-phenyl-1(2H)-pyridinyl)propoxy]-1H-indole], the 50% effective dose (ED50) in experiment [1] came to 2.5 mg/kg. This compound displayed an IC50 in experiment [2] (setting [4]) of 0.04 µM.

For `C1=C(c2ccccc2)CCN(CCCCOc2cccc3[nH]ccc23)C1` [Example 2G, 4-[4-(3,6-dihydro-4-phenyl-1(2H)-pyridinyl)butoxy]-1H-indole], in experiment [1], the ED50 was found to be 1.4 mg/kg. In experiment [2] (setting [4]), this compound returned an IC50 of 0.05 µM.

Take `C1=C(c2ccccc2)CCN(CCCCOc2ccc3[nH]ccc3c2)C1` [Example 2H, 5-[4-(3,6-dihydro-4-phenyl-1(2H)-pyridinyl)butoxy]-1H-indole]: the ED50 in experiment [1] worked out at 0.5 mg/kg. The IC50 in experiment [2] (setting [4]) amounted to 0.01 µM.

Consider `C1=C(c2ccccc2)CCN(CCCOc2ccc3cc[nH]c3c2)C1` [Example 2I, 6-[3-(3,6-dihydro-4-phenyl-1(2H)-pyridinyl)propoxy]-1H-indole], for which, in experiment [1], the median effective dose (ED50) worked out at 2.8 mg/kg. The compound also yielded an IC50 in experiment [2] (setting [4]) of 0.1 µM.

`c1cnc(N2CCN(CCCOc3ccc4cc[nH]c4c3)CC2)nc1` [Example 2J, 6-[3-[4-(2-pyrimidinyl)-1-piperazinyl]propoxy]-1H-indole]: in experiment [1], the 50% effective dose (ED50) came out at 3.2 mg/kg. In addition, in experiment [2] (setting [3]), the IC50 worked out at 0.2 µM.

For the compound `c1ccc(N2CCN(CCCOc3ccc4ncccc4c3)CC2)cc1` [Example 2K, 6-[3-(4-phenyl-1-piperazinyl)propoxy]-quinoline], in experiment [1], the ED50 came out at 0.5 mg/kg. The IC50 in experiment [2] (setting [3]) was 0.09 µM.

Turning to `c1cnc(N2CCN(CCCCOc3ccc4ncccc4c3)CC2)nc1` [Example 2L, 6-[4-[4-(2-pyrimidinyl)-1-piperazinyl]butoxy]quinoline], the median effective dose (ED50) in experiment [1] was 0.9 mg/kg. In experiment [2] (setting [3]), the IC50 turned out to be 0.05 µM.

On to `C1=C(c2ccccc2)CCN(CCCCOc2ccc3ncccc3c2)C1` [Example 2M, 6-[4-(3,6-dihydro-4-phenyl-1(2H)-pyridinyl)butoxy]quinoline], for which, in experiment [1], the ED50 worked out at 1.1 mg/kg. This compound also registered an IC50 in experiment [2] (setting [4]) of 0.017 µM.

In the case of `c1cnc(N2CCN(CCCCOc3cccc4ncccc34)CC2)nc1` [Example 2N, 5-[4-[4-(2-pyrimidinyl)-1-piperazinyl]butoxy]quinoline], the IC50 in experiment [2] (setting [3]) came out at 0.18 µM.

On to `C1=C(c2ccccc2)CCN(CCCOc2cccc3cnccc23)C1` [Example 2O, 5-[3-(3,6-dihydro-4-phenyl-1(2H)-pyridinyl)propoxy]isoquinoline], for which the ED50 in experiment [1] stood at 0.18 mg/kg. The same compound came in with an IC50 in experiment [2] (setting [4]) of 0.033 µM.

For `c1ccc(N2CCN(CCCOc3cccc4cnccc34)CC2)nc1` [Example 2P, 5-[3-[4-(2-pyridinyl)-1-piperazinyl]propoxy]isoquinoline], the median effective dose (ED50) in experiment [1] stood at 3 mg/kg. Further, the IC50 in experiment [2] (setting [3]) worked out at 0.645 µM.

For the compound `c1ccc(N2CCN(CCCOc3cccc4cnccc34)CC2)cc1` [Example 2Q, 5-[3-(4-phenyl-1-piperazinyl)propoxy]isoquinoline], the ED50 in experiment [1] amounted to 0.29 mg/kg. The IC50 in experiment [2] (setting [3]) was determined as 0.206 µM.

As for `c1cnc(N2CCN(CCCOc3cccc4cnccc34)CC2)nc1` [Example 2R, 5-[3-[4-(2-pyrimidinyl)-1-piperazinyl]propoxy]isoquinoline], in experiment [1], the ED50 was 19.5 mg/kg. For the same compound, in experiment [2] (setting [3]), the IC50 was found to be 0.947 µM.

For the compound `c1cnc(N2CCN(CCCCOc3cccc4ncccc34)CC2)nc1` [Example 2S, 5-[4-[4-(2-pyrimidinyl)-1-piperazinyl]butoxy]quinoline], the 50% effective dose (ED50) in experiment [1] turned out to be 7.7 mg/kg. In addition, the concentration for half-maximal inhibition (IC50) in experiment [2] (setting [3]) came out at 0.184 µM.

Regarding `c1ccc(N2CCN(CCCOc3ccc4cccnc4c3)CC2)nc1` [Example 2T, 7-[3-[4-(2-pyridinyl)-1-piperazinyl]propoxy]quinoline], in experiment [1], the ED50 is 0.17 mg/kg. Further, the IC50 in experiment [2] (setting [3]) came out at 0.23 µM.

Turning to `c1ccc(N2CCN(CCCOc3ccc4cccnc4c3)CC2)cc1` [Example 2U, 7-[3-(4-phenyl-1-piperazinyl)propoxy]quinoline], the ED50 in experiment [1] came to 0.1 mg/kg. In addition, the IC50 in experiment [2] (setting [3]) was 0.05 µM.

Consider `c1cnc(N2CCN(CCCOc3ccc4cccnc4c3)CC2)nc1` [Example 2V, 7-[3-[4-(2-pyrimidinyl)-1-piperazinyl]propoxy]quinoline], for which the 50% effective dose (ED50) in experiment [1] is 1 mg/kg. Besides, the IC50 in experiment [2] (setting [3]) was 0.9 µM.

With `Oc1nccc2c(OCCCN3CCN(c4ccccn4)CC3)cccc12` [Example 2W, 5-[3-[4-(2-pyridinyl)-1-piperazinyl]propoxy]-1-isoquinolinol], the ED50 in experiment [1] was found to be 6.1 mg/kg. In addition, the IC50 in experiment [2] (setting [3]) worked out at 0.651 µM.

In the case of `O=C1NCCc2c(OCCCN3CCN(c4ccccn4)CC3)cccc21` [Example 2X], the ED50 in experiment [1] worked out at 4.4 mg/kg. In addition, in experiment [2] (setting [3]), the half-maximal inhibitory concentration (IC50) was determined as 0.431 µM.

In the case of `c1ccc(N2CCN(CCCOc3ccc4[nH]cnc4c3)CC2)cc1` [Example 3, 5-[3-(4-Phenylpiperazinyl)propyloxy]-1H-benzimidazole], the median effective dose (ED50) in experiment [1] was found to be 4.9 mg/kg. Further, the half-maximal inhibitory concentration (IC50) in experiment [2] (setting [4]) is 0.12 µM.

On to `O=C1Cc2cc(OCCCN3CCN(c4ccccc4)CC3)ccc2N1` [Example 4, 1,3-dihydro-5-[3-(4-phenyl-1-piperazinyl)propoxy]-2H-indole-2-one], for which, in experiment [1], the ED50 worked out at 0.4 mg/kg. The IC50 in experiment [2] (setting [3]) was 0.16 µM.

As for `c1ccc(N2CCN(CCCOc3ccc4ccoc4c3)CC2)cc1` [Example 5, 1-[3-[6-Benzofuranyloxy]propyl]-4-phenylpiperazine], in experiment [1], the median effective dose (ED50) is 8.8 mg/kg. In addition, the concentration for half-maximal inhibition (IC50) in experiment [2] (setting [3]) came out at 0.5 µM.
